According to patent US20140005163A1 (NOVARTIS AG, priority 2010, published 2014):

What was measured:
[1] = test system: PKB Ser473 phosphorylation in Rat1-myr-HA-p110 delta cells; test: Reverse protein array assay, PKB Ser473 phosphorylation in Rat1-myr-p110 delta cells; format: cell-based; conditions: read-out: p-PKB IC50
Outline: (§1)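 Measured: PKB Ser473 phosphorylation by reverse protein array in Rat1 cells expressing myr-HA-p110 alpha, beta or delta, after 30 min compound treatment at 37 °C with 0.2% DMSO vehicle.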

[2] = test system: PKB Ser473 phosphorylation in Rat1-myr-HA-p110 alpha cells; test: Reverse protein array assay, PKB Ser473 phosphorylation in Rat1-myr-p110 alpha cells; format: cell-based; conditions: 0.5 h, pAkt Ser473, 30 minutes compound incubation, read-out: p-PKB IC50
Outline: as §1

Structure (SMILES) | IC50 [1] [µM] | IC50 [2] [µM]
Cc1nn(CC(=O)N(C)C)c(C)c1-n1c(=O)n(C)c2cnc3ccc(-c4cnc(N)c(C(F)(F)F)c4)cc3c21 [Example 25.2, 2-{4-[8-(6-Amino-5-trifluoromethyl-pyridin-3-yl)-3-methyl-2-oxo-2,3-dihydro-imidazo[4,5-c]quinolin-1-yl]-3,5-dimethyl-pyrazol-1-yl}-N,N-dimethyl-acetamide] | 0.247 | 0.09
Cc1nn(C)c(C)c1-n1c(=O)n(C)c2cnc3ccc(-c4cnc(N)c(C(F)(F)F)c4)cc3c21 [Example 25.3, 8-(6-Amino-5-trifluoromethyl-pyridin-3-yl)-3-methyl-1-(1,3,5-trimethyl-1H-pyrazol-4-yl)-1,3-dihydro-imidazo[4,5-c]quinolin-2-one] | 0.059 | 0.025
Cc1nn(C(C)C)cc1-n1c(=O)n(C)c2cnc3ccc(-c4cnc(N)c(C(F)(F)F)c4)cc3c21 [Example 25.4, 8-(6-Amino-5-trifluoromethyl-pyridin-3-yl)-1-(1-isopropyl-3-methyl-1H-pyrazol-4-yl)-3-methyl-1,3-dihydro-imidazo[4,5-c]quinolin-2-one] | 0.009 | < 0.005
Cc1noc(C)c1-n1c(=O)n(C)c2cnc3ccc(-c4cnc(N)c(C(F)(F)F)c4)cc3c21 [Example 25.5, 8-(6-Amino-5-trifluoromethyl-pyridin-3-yl)-1-(3,5-dimethyl-isoxazol-4-yl)-3-methyl-1,3-dihydro-imidazo[4,5-c]quinolin-2-one] | 0.157 | 0.097
COc1ncc(-c2ccc3ncc4c(c3c2)n(-c2cn(C)nc2C)c(=O)n4C)cc1N(C)C(C)=O [Example 62, N-{5-[1-(1,3-Dimethyl-1H-pyrazol-4-yl)-3-methyl-2-oxo-2,3-dihydro-1H-imidazo[4,5-c]quinolin-8-yl]-2-methoxy-pyridin-3-yl}-N-methyl-acetamide] | 0.276 | 0.469
CNc1ncc(-c2ccc3ncc4c(c3c2)n(-c2c(C)nn(C)c2C)c(=O)n4C)cn1 [Example 80.2] | 0.323 | 0.108
Cc1nn(C)cc1-n1c(=O)n(C)c2cnc3ccc(-c4cnc(N)nc4)cc3c21 [Example 81.1, 8-(2-Amino-pyrimidin-5-yl)-1-(1,3-dimethyl-1H-pyrazol-4-yl)-3-methyl-1,3-dihydro-imidazo[4,5-c]quinolin-2-one] | 0.011 | 0.013
Cc1nn(C)cc1-n1c(=O)n(C)c2cnc3ccc(-c4cccc(OC(C)C)c4F)cc3c21 [Example 83, 1-(1,3-Dimethyl-1H-pyrazol-4-yl)-8-(2-fluoro-3-isopropoxy-phenyl)-3-methyl-1,3-dihydro-imidazo[4,5-c]quinolin-2-one] | 0.508 | 0.197
COCCOc1cc(-c2ccc3ncc4c(c3c2)n(-c2cn(C)nc2C)c(=O)n4C)cnc1C [Example 86.2, 1-(1,3-Dimethyl-1H-pyrazol-4-yl)-8-[5-(2-methoxy-ethoxy)-6-methyl-pyridin-3-yl]-3-methyl-1,3-dihydro-imidazo[4,5-c]quinolin-2-one] | 0.057 | 0.033
CCNc1cc(-c2ccc3ncc4c(c3c2)n(-c2cn(C)nc2Cl)c(=O)n4C)cnc1OC [Example 90.1, 1-(3-Chloro-1-methyl-1H-pyrazol-4-yl)-8-(5-ethylamino-6-methoxy-pyridin-3-yl)-3-methyl-1,3-dihydro-imidazo[4,5-c]quinolin-2-one] | < 0.005 | < 0.005
CNc1ccc(-c2ccc3ncc4c(c3c2)n(-c2cn(C)nc2Cl)c(=O)n4C)cn1 [Example 118.5, 1-(3-Chloro-1-methyl-1H-pyrazol-4-yl)-3-methyl-8-(6-methylamino-pyridin-3-yl)-1,3-dihydro-imidazo[4,5-c]quinolin-2-one] | 0.006 | < 0.005
Cc1nn(C)cc1-n1c(=O)n(C)c2cnc3ccc(-c4cnc(N)c(F)c4)cc3c21 [Example 142.2, 8-(6-Amino-5-fluoro-pyridin-3-yl)-1-(1,3-dimethyl-1H-pyrazol-4-yl)-3-methyl-1,3-dihydro-imidazo[4,5-c]quinolin-2-one] | 0.019 | 0.006
[2H]C([2H])([2H])Nc1ncc(-c2ccc3ncc4c(c3c2)n(-c2c(C)nn(C)c2C)c(=O)n4C)cc1C(F)(F)F [Example 143, 3-Methyl-8-(6-trideuteromethylamino-5-trifluoromethyl-pyridin-3-yl)-1-(1,3,5-trimethyl-1H-pyrazol-4-yl)-1,3-dihydro-imidazo[4,5-c]quinolin-2-one] | 0.086 | 0.04
CCNc1ncc(-c2ccc3ncc4c(c3c2)n(-c2c(C)nn(C)c2C)c(=O)n4C)cc1C(F)(F)F [Example 145.1, 8-(6-Ethylamino-5-trifluoromethyl-pyridin-3-yl)-3-methyl-1-(1,3,5-trimethyl-1H-pyrazol-4-yl)-1,3-dihydro-imidazo[4,5-c]quinolin-2-one] | 0.28 | 0.069
CNc1ncc(-c2ccc3ncc4c(c3c2)n(-c2cn(C(C)C)nc2C)c(=O)n4C)cc1Cl [Example 146.3, 8-(5-Chloro-6-methylamino-pyridin-3-yl)-1-(1-isopropyl-3-methyl-1H-pyrazol-4-yl)-3-methyl-1,3-dihydro-imidazo[4,5-c]quinolin-2-one] | 0.024 | 0.02
CNc1ncc(-c2ccc3ncc4c(c3c2)n(-c2c(C)noc2C)c(=O)n4C)cc1Cl [Example 146.6, 8-(5-Chloro-6-methylamino-pyridin-3-yl)-1-(3,5-dimethyl-isoxazol-4-yl)-3-methyl-1,3-dihydro-imidazo[4,5-c]quinolin-2-one] | 0.564 | 0.172
CCNc1ncc(-c2ccc3ncc4c(c3c2)n(-c2cn(C)nc2C)c(=O)n4C)cc1Cl [Example 147, 8-(5-Chloro-6-ethylamino-pyridin-3-yl)-1-(1,3-dimethyl-1H-pyrazol-4-yl)-3-methyl-1,3-dihydro-imidazo[4,5-c]quinolin-2-one] | 0.086 | 0.017
Cc1nn(C)cc1-n1c(=O)n(C)c2cnc3ccc(-c4cnc(F)c(N(C)C)c4)cc3c21 [Example 151, 8-(5-Dimethylamino-6-fluoro-pyridin-3-yl)-1-(1,3-dimethyl-1H-pyrazol-4-yl)-3-methyl-1,3-dihydro-imidazo[4,5-c]quinolin-2-one] | 0.04 | 0.021
CNc1cc(-c2ccc3ncc4c(c3c2)n(-c2c(C)nn(C)c2C)c(=O)n4C)cnc1CO [Example 158.4, 8-(6-Hydroxymethyl-5-methylamino-pyridin-3-yl)-3-methyl-1-(1,3,5-trimethyl-1H-pyrazol-4-yl)-1,3-dihydro-imidazo[4,5-c]quinolin-2-one] | 0.095 | 0.114
CCOCc1cc(-c2ccc3ncc4c(c3c2)n(-c2cn(CC)nc2C)c(=O)n4C)cnc1N [Example 166.2, 8-(6-Amino-5-ethoxymethyl-pyridin-3-yl)-1-(1-ethyl-3-methyl-1H-pyrazol-4-yl)-3-methyl-1,3-dihydro-imidazo[4,5-c]quinolin-2-one] | 0.05 | 0.038
COCc1cc(-c2ccc3ncc4c(c3c2)n(-c2cn(C(C)C)nc2C)c(=O)n4C)cnc1N [Example 168.1, 8-(6-Amino-5-methoxymethyl-pyridin-3-yl)-1-(1-isopropyl-3-methyl-1H-pyrazol-4-yl)-3-methyl-1,3-dihydro-imidazo[4,5-c]quinolin-2-one] | 0.05 | 0.02
Cc1cc(-n2c(=O)n(C)c3cnc4ccc(-c5cncc(N6CCOCC6)c5)cc4c32)n(C)n1 [Example 175.2, 1-(2,5-Dimethyl-2H-pyrazol-3-yl)-3-methyl-8-(5-morpholin-4-yl-pyridin-3-yl)-1,3-dihydro-imidazo[4,5-c]quinolin-2-one] | 0.36 | 0.059
Cc1nn(C)cc1-n1c(=O)n(C)c2cnc3ccc(-c4cncc(OCCF)c4)cc3c21 [Example 181, 1-(1,3-Dimethyl-1H-pyrazol-4-yl)-8-[5-(2-fluoro-ethoxy)-pyridin-3-yl]-3-methyl-1,3-dihydro-imidazo[4,5-c]quinolin-2-one] | 0.062 | 0.051
COc1ncc(-c2ccc3ncc4c(c3c2)n(-c2cn(C)nc2Cl)c(=O)n4C)cc1CO [Example 200, 1-(3-Chloro-1-methyl-1H-pyrazol-4-yl)-8-(5-hydroxymethyl-6-methoxy-pyridin-3-yl)-3-methyl-1,3-dihydro-imidazo[4,5-c]quinolin-2-one] | 0.007 | < 0.005
COCc1cc(-c2ccc3ncc4c(c3c2)n(-c2cn(C)nc2Cl)c(=O)n4C)cnc1OC [Example 201, 1-(3-Chloro-1-methyl-1H-pyrazol-4-yl)-8-(6-methoxy-5-methoxymethyl-pyridin-3-yl)-3-methyl-1,3-dihydro-imidazo[4,5-c]quinolin-2-one] | 0.01 | 0.012
Cc1nn(C(C)C)cc1-n1c(=O)n(C)c2cnc3ccc(-c4cncc(C(O)(CF)CF)c4)cc3c21 [Example 219, 8-[5-(2-Fluoro-1-fluoromethyl-1-hydroxy-ethyl)-pyridin-3-yl]-1-(1-isopropyl-3-methyl-1H-pyrazol-4-yl)-3-methyl-1,3-dihydro-imidazo[4,5-c]quinolin-2-one] | 0.297 | 0.052
CCn1cc(-n2c(=O)n(C)c3cnc4ccc(-c5cncc(C6(C#N)CCC6)c5)cc4c32)c(C)n1 [Example 221.2, 1-{5-[1-(1-Ethyl-3-methyl-1H-pyrazol-4-yl)-3-methyl-2-oxo-2,3-dihydro-1H-imidazo[4,5-c]quinolin-8-yl]-pyridin-3-yl}-cyclobutanecarbonitrile] | 0.056 | 0.018
COCCNC(=O)c1cc(-c2ccc3ncc4c(c3c2)n(-c2cn(C)nc2C)c(=O)n4C)cnc1N [Example 226, 2-Amino-5-[1-(1,3-dimethyl-1H-pyrazol-4-yl)-3-methyl-2-oxo-2,3-dihydro-1H-imidazo[4,5-c]quinolin-8-yl]-N-(2-methoxy-ethyl)-nicotinamide] | 0.433 | –
